US4387238A, “Epoxysuccinamic acid compounds” (Taisho Pharmaceutical Co., Ltd., priority 1978, dated 1983)
Where two headings read alike, the source gives them in different places.

Key:
papain = target: T1, papain (Carica papaya, UniProt P00784); assay: Papain inhibitory activity (milk casein proteolysis); assay type: biochemical; parameters: unit not given beside the values; conditions: amount of inhibitor for 50% inhibition; pH 6.8, 40° C., casein substrate
T1 construct: purchased Sigma Chem. Co
T1 sequence (P00784 134-345): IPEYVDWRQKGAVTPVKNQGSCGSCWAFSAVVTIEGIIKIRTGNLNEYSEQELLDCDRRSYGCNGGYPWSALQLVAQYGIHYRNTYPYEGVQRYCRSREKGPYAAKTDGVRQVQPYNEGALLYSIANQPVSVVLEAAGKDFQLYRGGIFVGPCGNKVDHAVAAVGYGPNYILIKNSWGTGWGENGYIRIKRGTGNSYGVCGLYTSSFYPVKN

[1] = test system: adjuvant-induced polyarthritis; assay: Effect on the development of adjuvant-induced polyarthritis in rat (hind paw volume); assay type: in vivo, Sprague Dawley rat; conditions: 30 mg/kg of body weight, daily oral, 8 rats/group
Description: The compounds of the present invention show excellent anti-inflammatory activity as measured by their ability to inhibit adjuvant induced polyarthritis as compared with the known epoxysuccinates. That is, they show potent and continuous effectiveness on oral administration of smaller components than the known epoxysuccinic acid compounds. Effect of the compounds of the present invention on the development of adjuvant-induced polyarthritis in rat was assayed as follows: Adjuvant arthritis is produced by a single intracutaneous injection of 0.1 ml of the adjuvant mixture containing heat-killed mycobacteria of the human Aoyama B strain suspended in liquid paraffin in 0.6% in the middle part of the distal tail of Sprague Dawley rat (female, 8 weeks old). The compounds suspended in 0.5% carboxymethylcellulose solution protect the animal against the development of lession of adjuvant arthritis in daily oral administration beginning on the day of adjuvant injection and continuing for 24 days thereafter. The activity is measured as the mean inhibition percent for the increase of the hind paw volume of the 8 rats/group on the days 17 and 23 on which the legs become inflamed and reach maximum volumes. The compound Nos. in Table 1 are as defined in Examples as described hereinafter.

[2] = 408 h, day 17, mean inhibition for increase of hind paw volume, read-out: Inhibition(%) 17 days
[3] = 552 h, day 23, mean inhibition for increase of hind paw volume, read-out: Inhibition(%) 23 days

Compound | ID50 (papain) | inhibition in vivo at 30 mg/kg [1, 2] | inhibition in vivo at 30 mg/kg [1, 3]
CCOC(=O)[C@@H]1O[C@H]1C(=O)N(C)C1CCCCC1 (relative stereo) [Compound No. 31, ethyl N-methyl-N-cyclohexyl-2,3-epoxysuccinamate] | 53.19 γ | 45% | 38%
CC(C)COC(=O)[C@H]1O[C@@H]1C(=O)Nc1ccccc1 (relative stereo) [Compound No. 40, Isobutyl N-phenyl-2,3-epoxysuccinamate] | 13.20 γ | 40% | 35%
O=C(Nc1ccccc1)[C@H]1O[C@@H]1C(=O)OC1CCCCC1 (relative stereo) [Compound No. 45, Cyclohexyl N-phenyl-2,3-epoxysuccinamate] | 5.89 γ | 65% | 49%
O=C(NCc1ccccc1)[C@H]1O[C@@H]1C(=O)Oc1ccccc1 (relative stereo) [Compound No. 48, Phenyl N-benzyl-2,3-epoxysuccinamate] | 3.83 γ | 45% | 40%
CCNC(=O)[C@H]1O[C@@H]1C(=O)OC1CCCCC1 (relative stereo) [Compound No. 66, Cyclohexyl N-ethyl-2,3-epoxysuccinamate] | 11.05 γ | 75% | 62%
CCOC(=O)[C@@H]1O[C@H]1C(=O)N1CCC(C)CC1 (relative stereo) [Compound No. 76, ethyl N-3'-methylpentamethylene-2,3-epoxysuccinamate] | 79.53 γ | 48% | 42%
O=C(O)[C@@H]1O[C@H]1C(=O)NCC1CCCCC1 (relative stereo) [Compound No. 98, potassium N-cyclohexanemethyl-2,3-epoxysuccinamate] | 0.205 γ | 55% | 41%
